{
  "source": "patent US20230242915A1",
  "about": "“SMALL INTERFERING DEOXYRIBONUCLEIC ACID (SIDNA) AGAINST METALLO-BETA LACTAMASE GENE” (priority 2021, published 2023)",
  "key": {"blaIMP-1 gene": {"system": "blaIMP-1 gene", "experiment": "blaIMP-1 mRNA level by real time RT-PCR in Pseudomonas aeruginosa transformed with siDNA", "format": "cell-based", "settings": "for Fold change of blaIMP-1 mRNA: 2-ΔΔCt, untreated = about 1", "protocol": "In this example, the synthesized siDNA in “Example 1” (comprising exemplary sense and antisense strands set forth in SEQ ID NO: 1 and 2, respectively) was cloned into Pseudomonas aeruginosa bacteria harboring an exemplary blaIMP-1 gene (imipenem/meropenem resistance gene). To this end, first, competent Pseudomonas aeruginosa was prepared and stored at −70° C. to be used in further experiments. Competent cells may refer to microbial cells capable of taking up foreign nucleic acid molecules from their surroundings through a process known as transformation. In order to transfer/clone the prepared siDNA into the competent Pseudomonas aeruginosa bacteria, 100 μL of an exemplary siDNA (either being coated with chitosan polymer or being bare—i.e., being uncoated) with a concentration of about 1% w/v was added to 60 μL of the competent Pseudomonas aeruginosa culture in Lysogeny Broth (LB) medium, gently mixed, and kept at 0° C. for 45 min. Then, the mixture of an exemplary siDNA (either being bare or coated with chitosan polymer) with the culture of competent Pseudomonas aeruginosa was incubated at 37° C., for 20 sec, and immediately placed on ice. Then, 800 μL of Super Optimal broth (SOC) medium was added to the mixture of an exemplary siDNA (either being bare or coated with chitosan polymer) with the culture of competent Pseudomonas aeruginosa and incubated at 37° C., in a shaker incubator, for 24-30 h.\nIn this example, the effect of an exemplary siDNA—which was cloned into Pseudomonas aeruginosa bacteria in “Example 2”—on the expression of an exemplary blaIMP-1 gene was evaluated. In other words, the level of blaIMP-1 mRNA (messenger RNA) was measured in the transformed Pseudomonas aeruginosa bacteria with an exemplary siDNA in “Example 2”. For this purpose, the total RNA of an exemplary transformed Pseudomonas aeruginosa and an exemplary untreated Pseudomonas aeruginosa (as negative control) was extracted using a commercial RNA extraction kit, followed by conducting a real time RT-PCR (reverse transcriptase polymerase chain reaction) to determine the level of blaIMP-1 mRNA. In this example, 2-ΔΔCt method was used to determine differences in normalized expression of an exemplary blaIMP-1 gene (at transcription level) induced by an exemplary siDNA. FIG. 2 illustrates RNA expression profile 200 in an exemplary transformed Pseudomonas aeruginosa with an exemplary siDNA (measured by real time RT-PCR), consistent with one or more exemplary embodiments of the present disclosure. As shown in RNA expression profile 200, Group A refers to an exemplary transformed Pseudomonas aeruginosa bacteria grown for 4 h in the presence of imipenem, Group B refers to an exemplary transformed Pseudomonas aeruginosa bacteria grown for 18 h in the presence of imipenem, and Group C refers to an exemplary transformed Pseudomonas aeruginosa bacteria grown for 36 h in the presence of imipenem. […] Fold change of an exemplary blaIMP-1 mRNA in untreated Pseudomonas aeruginosa, Group A, Group B, and Group C—shown in RNA expression profile 200—were about 1, 0.088, 0.020, and 0.27, respectively."}, "[1]": {"system": "Pseudomonas aeruginosa harboring blaIMP-1 gene", "experiment": "imipenem MIC assay (broth dilution) on transformed Pseudomonas aeruginosa", "format": "cell-based", "protocol": "In this example, the synthesized siDNA in “Example 1” (comprising exemplary sense and antisense strands set forth in SEQ ID NO: 1 and 2, respectively) was cloned into Pseudomonas aeruginosa bacteria harboring an exemplary blaIMP-1 gene (imipenem/meropenem resistance gene). To this end, first, competent Pseudomonas aeruginosa was prepared and stored at −70° C. to be used in further experiments. Competent cells may refer to microbial cells capable of taking up foreign nucleic acid molecules from their surroundings through a process known as transformation. In order to transfer/clone the prepared siDNA into the competent Pseudomonas aeruginosa bacteria, 100 μL of an exemplary siDNA (either being coated with chitosan polymer or being bare—i.e., being uncoated) with a concentration of about 1% w/v was added to 60 μL of the competent Pseudomonas aeruginosa culture in Lysogeny Broth (LB) medium, gently mixed, and kept at 0° C. for 45 min. Then, the mixture of an exemplary siDNA (either being bare or coated with chitosan polymer) with the culture of competent Pseudomonas aeruginosa was incubated at 37° C., for 20 sec, and immediately placed on ice. […]\nOn the other hand, to further confirm success of an exemplary siDNA in silencing an exemplary blaIMP-1 gene in Pseudomonas aeruginosa, minimum inhibitory concentration (MIC) of imipenem was determined in an exemplary transformed Pseudomonas aeruginosa. To this end, MICs of imipenem that may inhibit the growth of an exemplary transformed Pseudomonas aeruginosa (with an exemplary siDNA) was determined after 1-4 h, 2-18 h, and 3-36 h, by broth dilution method performed in a 96-well microtiter plate. […]\nTo conduct an exemplary MIC assay, bacterial culture grown to log phase was adjusted to about 5×10^5 (cells/mL) in Muller-Hinton broth. Then, the antimicrobial effect of imipenem on an exemplary transformed Pseudomonas aeruginosa and an exemplary untreated Pseudomonas aeruginosa was determined by measuring turbidity of bacterial growth in each well, using a microtiter plate reader. […]"}, "[2]": {"system": "imipenem-resistant Pseudomonas aeruginosa", "experiment": "chronic Pseudomonas aeruginosa lung infection model, lung histology", "format": "in vivo", "settings": "infected mice, imipenem in combination with siDNA (with chitosan), 3 days of treatment; compared with FIG. 5A mouse", "protocol": "In this example, the effect of an exemplary siDNA on an exemplary imipenem-resistant Pseudomonas aeruginosa was assessed in 40 mice with chronic Pseudomonas aeruginosa lung infection. For this purpose, a 1% w/v concentration of chitosan polymer was prepared, followed by preparing two different ratios of chitosan 1% w/v to an exemplary siDNA—in phosphate buffered saline (PBS)—including an exemplary 1:1 ration and an exemplary 0.5:1 ratio.\nA chronic Pseudomonas aeruginosa lung infection model (using imipenem-resistant Pseudomonas aeruginosa) was established in 40 mice (25-30 g). Exemplary mice were randomly divided into three groups (each group comprising 10 mice) including: i) an exemplary control group that only received imipenem after acquiring chronic infection, ii) an exemplary first group that received imipenem in combination with an exemplary siDNA (ratio 0.5:1 of chitosan 1% w/v to an exemplary siDNA) after acquiring chronic infection, and iii) an exemplary second group that received imipenem in combination with an exemplary siDNA (ratio 1:1 of chitosan 1% w/v to an exemplary siDNA) after acquiring chronic infection. […] The level of tissue damage in an exemplary control group, first group, and second group was observed and analyzed by light microscopy. […]"}},
  "note": "{FAM} = 6-FAM fluorescein dye; {TAMRA} = TAMRA dye",
  "data": [
    {"substance": "siDNA: Annealed duplex of sense strand SEQ ID NO: 1 and antisense strand SEQ ID NO: 2, each 5′ 6-FAM and 3′ TAMARA, targeting blaIMP-1 gene (sense GCCGACATCGCCTTCGGCGTTTATGATT; antisense AACGCGAGAAAGTATGAACCTAGCACTT; DNA, 5' {FAM}, 3' {TAMRA}, backbone and methylation of C not given here)", "values": [
      {"measurement": "decrease of gene expression compared to untreated Pseudomonas aeruginosa", "setting": "blaIMP-1 gene; Group A, 4 h in the presence of imipenem", "value": 11.36, "unit": "folds"},
      {"measurement": "Fold change of blaIMP-1 mRNA", "setting": "blaIMP-1 gene; Group A: transformed bacteria grown 4 h in the presence of imipenem", "value": "~0.088"},
      {"measurement": "decrease of gene expression compared to untreated Pseudomonas aeruginosa", "setting": "blaIMP-1 gene; Group B, 18 h in the presence of imipenem", "value": 50, "unit": "folds"},
      {"measurement": "Fold change of blaIMP-1 mRNA", "setting": "blaIMP-1 gene; Group B: transformed bacteria grown 18 h in the presence of imipenem", "value": "~0.020"},
      {"measurement": "decrease of gene expression compared to untreated Pseudomonas aeruginosa", "setting": "blaIMP-1 gene; Group C, 36 h in the presence of imipenem", "value": 3.7, "unit": "folds"},
      {"measurement": "Fold change of blaIMP-1 mRNA", "setting": "blaIMP-1 gene; Group C: transformed bacteria grown 36 h in the presence of imipenem", "value": "~0.27"},
      {"measurement": "MIC of imipenem in siDNA-transformed Pseudomonas aeruginosa", "setting": "[1]; Group A, 4 h, Muller-Hinton broth", "value": 2, "unit": "µg/mL"},
      {"measurement": "MIC of imipenem in siDNA-transformed Pseudomonas aeruginosa", "setting": "[1]; Group B, 18 h, Muller-Hinton broth", "value": 4, "unit": "µg/mL"},
      {"measurement": "MIC of imipenem in siDNA-transformed Pseudomonas aeruginosa", "setting": "[1]; Group C, 36 h, similar to untreated negative control", "value": 32, "unit": "µg/mL"},
      {"measurement": "edema and tissue damage in lung tissue (hematoxylin and eosin histology)", "setting": "[2]", "value": "significantly less edema and tissue damage"}
    ]}
  ]
}
